From ChEMBL document CHEMBL2331252, “Facile one-pot synthesis of novel dispirooxindole-pyrrolidine derivatives and their antimicrobial and anticancer activity against A549 human lung adenocarcinoma cancer cell line” (Bioorg Med Chem Lett, 2013)
≈ marks a conversion by molar mass, not a printed value. Calls of active or inactive are those of the source. The rule behind the calls is not given here.

How the values were obtained:
[1] = system: Shigella flexneri; assay: Antibacterial activity against Shigella flexneri MTCC 1457 after 24 hrs; format: functional; conditions: MTCC 1457, 24 h
[2] = system: Salmonella typhimurium; assay: Antibacterial activity against Salmonella typhimurium MTCC 1251 at 1 mg/disc after 24 hrs by disc diffusion method; format: functional, Salmonella enterica subsp. enterica serovar Typhimurium
[3] = system: Shigella flexneri; assay: Antibacterial activity against Shigella flexneri MTCC 1457 at 1 mg/disc after 24 hrs by disc diffusion method; format: functional
[4] = system: Klebsiella pneumoniae; assay: Antibacterial activity against Klebsiella pneumoniae MTCC 109 at 1 mg/disc after 24 hrs by disc diffusion method; format: functional
[5] = system: Salmonella typhimurium; assay: Antibacterial activity against Salmonella typhimurium MTCC 1251 after 24 hrs; format: functional, Salmonella enterica subsp. enterica serovar Typhimurium; conditions: Salmonella enterica, MTCC 1251, 24 h
[6] = system: Proteus vulgaris; assay: Antibacterial activity against Proteus vulgaris MTCC 1771 after 24 hrs; format: functional; conditions: MTCC 1771, 24 h
[7] = system: Candida albicans; assay: Antifungal activity against Candida albicans MTCC 227 after 48 to 72 hrs; format: functional
[8] = system: A549; assay: Cytotoxicity against human A549 cells assessed as cell death at 50 ug/ml by MTT assay; format: functional
[9] = system: A549; assay: Cytotoxicity against human A549 cells assessed as cell death at 200 ug/ml by MTT assay; format: functional
[10] = system: Klebsiella aerogenes; assay: Antibacterial activity against Enterobacter aerogenes MTCC 111 after 24 hrs; format: functional
[11] = system: A549; assay: Cytotoxicity against human A549 cells assessed as cell death at 100 ug/ml by MTT assay; format: functional
[12] = system: Klebsiella aerogenes; assay: Antibacterial activity against Enterobacter aerogenes MTCC 111 at 1 mg/disc after 24 hrs by disc diffusion method; format: functional
[13] = system: Staphylococcus aureus; assay: Antibacterial activity against methicillin-resistant Staphylococcus aureus at 1 mg/disc after 24 hrs by disc diffusion method; format: functional
[14] = system: Candida albicans; assay: Antifungal activity against Candida albicans MTCC 227 at 1 mg/disc after 48 hrs by disc diffusion method; format: functional
[15] = system: Micrococcus luteus; assay: Antibacterial activity against Micrococcus luteus MTCC 106 at 1 mg/disc after 24 hrs by disc diffusion method; format: functional
[16] = Antifungal activity against Malassezia pachydermatis at 1 mg/disc after 48 hrs by disc diffusion method; format: functional
[17] = system: Staphylococcus aureus; assay: Antibacterial activity against Staphylococcus aureus MTCC 96 after 24 hrs; format: functional; conditions: MTCC 96, 24 h
[18] = system: Micrococcus luteus; assay: Antibacterial activity against Micrococcus luteus MTCC 106 after 24 hrs; format: functional; conditions: MTCC 106, 24 h
[19] = system: Proteus vulgaris; assay: Antibacterial activity against Proteus vulgaris MTCC 1771 at 1 mg/disc after 24 hrs by disc diffusion method; format: functional
[20] = system: Staphylococcus aureus; assay: Antibacterial activity against Staphylococcus aureus MTCC 96 at 1 mg/disc after 24 hrs by disc diffusion method; format: functional
[21] = system: Klebsiella pneumoniae; assay: Antibacterial activity against Klebsiella pneumoniae MTCC 109 after 24 hrs; format: functional; conditions: MTCC 109, 24 h
[22] = system: Staphylococcus aureus; assay: Antibacterial activity against methicillin-resistant Staphylococcus aureus after 24 hrs; format: functional

SMILES	MIC [1] [µg/mL]	inhibition zone (IZ) [2] [mm]	inhibition zone (IZ) [3] [mm]	inhibition zone (IZ) [4] [mm]	MIC [5] [µg/mL]	MIC [6] [µg/mL]	MIC [7] [µg/mL]	Activity [8] [%]	Activity [9] [%]	Activity [11] [%]	inhibition zone (IZ) [12] [mm]	inhibition zone (IZ) [13] [mm]	inhibition zone (IZ) [14] [mm]	inhibition zone (IZ) [15] [mm]	MIC [17] [µg/mL]	MIC [18] [µg/mL]	inhibition zone (IZ) [19] [mm]	inhibition zone (IZ) [20] [mm]	MIC [21] [µg/mL]	MIC [22] [µg/mL]	also measured
CN1C[C@](C#N)(C(=O)c2c[nH]c3ccccc23)[C@]2(C(=O)Nc3ccccc32)[C@@]12C(=O)Nc1ccc(I)cc12	1000 (≈ 1630 µM)	11	8	13	500 (≈ 815 µM)	500 (≈ 815 µM)	500 (≈ 815 µM)	4.19	17.58	9.66	9	8	10	8	500 (≈ 815 µM)	1000 (≈ 1630 µM)	9	10	250 (≈ 408 µM)	1000 (≈ 1630 µM)	MIC [10]: inactive; inhibition [16]: inactive
CN1C(=O)[C@@]2(c3cc(I)ccc31)N(C)C[C@](C#N)(C(=O)c1c[nH]c3ccccc13)[C@]21C(=O)Nc2ccccc21	500 (≈ 797 µM)	10	10	9	500 (≈ 797 µM)	500 (≈ 797 µM)	500 (≈ 797 µM)	4.34	26.85	12.66	13	12	9	11	125 (≈ 199 µM)	125 (≈ 199 µM)	9	11	500 (≈ 797 µM)	125 (≈ 199 µM)	MIC ([10]; MTCC 111, 24 h): 125 µg/mL (≈ 199 µM); inhibition zone (IZ) [16]: 11 mm
Cc1ccc2c(c1)[C@]1(C(=O)N2C)N(C)C[C@](C#N)(C(=O)c2c[nH]c3ccccc23)[C@]12C(=O)Nc1ccccc12	125 (≈ 242 µM)	9	11	11	500 (≈ 970 µM)	125 (≈ 242 µM)	500 (≈ 970 µM)	0.66	15.12	10.73	13	8	8	10	500 (≈ 970 µM)	500 (≈ 970 µM)	12	9	125 (≈ 242 µM)	500 (≈ 970 µM)	MIC ([10]; MTCC 111, 24 h): 125 µg/mL (≈ 242 µM); inhibition [16]: inactive
